# Literature values as cited in US20080153738A1, “COMPOSITIONS AND METHODS FOR TREATMENT OF HYPERPLASIA” (priority 1997, published 2008).
# Tested on: in-stent restenosis in porcine coronary arteries
compound,measurement,setting,value
"CC(=O)O[C@H]1C(=O)[C@@]2(C)[C@H]([C@H](OC(=O)c3ccccc3)[C@]3(O)C[C@H](OC(=O)[C@H](O)[C@@H](NC(=O)c4ccccc4)c4ccccc4)C(C)=C1C3(C)C)[C@]1(OC(C)=O)CO[C@@H]1C[C@@H]2O [paclitaxel, Paclitaxel]",neointimal area,90 μg paclitaxel stents,significant reduction in neointimal area
same,Lumen area,"15 and 90 μg paclitaxel stents, directly applied without polymer",Lumen area was increased
same,local cytotoxic effects,stents coated with 90 μg of paclitaxel,significant local cytotoxic effects were observed
same,diameter stenosis and neointimal area,"stents coated with biodegradable polymer, slow-release paclitaxel 175-200 μg/stent, 4 weeks",reduction in diameter stenosis and neointimal area
